Reference: patent US10123540B1, “Disinfectant material” (PEN Inc., priority 2014, dated 2018)

Experiments:
[1] = tested on: feline calcivirus ATCC VR-782; assay: Antiviral surface test, Modified ASTM E1053, limited to 10 minutes; details: 20 mg/L in a water based solution applied to a surface; 10 minutes exposure; non-enveloped virus
Method: Copper ions (20 mg/L) in a water based solution were applied to a surface with the non-enveloped feline calcivirus ATCC VR-782. […] In our case we wanted to have an idea about the rate of killing and this is why we limited the test to 10 minutes.

[2] = tested on: H1N1 Influenza A, Strain A-California; assay: Towelette antiviral test, modified AATCC 100; details: towelettes embedded with water based solution at 20 mg/L
Method: A number of other tests were performed against H1N1 Influenza A, Strain A-California, and Human Corona Virus 229E.

[3] = tested on: Human Corona Virus 229E; details: 10 minutes

## [Cu+2] [Copper ions]
[1]
  reduction relative to the control: 82.22%

## copper iodide
[2]
  reduction vs time zero control: 99.7%
[3]
  percent reduction: 99.99%
